Reference: US12208092B2, “Compositions and methods for administering paltusotine to patients with hepatic impairment” (CRINETICS PHARMACEUTICALS, INC., priority 2023, dated 2025)

Assay: Phase 1 hepatic impairment study, safety (TEAEs) after single oral 20 mg tablet
[1] = normal hepatic function (N = 14)
[2] = severe hepatic impairment (N = 6)

Description: The secondary objective of the study was to assess the safety and tolerability of a single dose of paltusotine in subjects with varying degrees of hepatic impairment.
Safety and tolerability were assessed by the following endpoints: reported adverse events (AEs), clinical laboratory test results (hematology, coagulation, serum chemistry, and urinalysis), vital sign measurements, and 12-lead electrocardiogram results
All 36 subjects who were enrolled in the study received all planned single doses of paltusotine 20 mg (1×20 mg tablet) and were included in the safety and PK analysis populations.

SMILES: N#Cc1cccc(-c2ccc3ncc(-c4cc(F)cc(F)c4)c(N4CCC(N)CC4)c3c2)c1O [paltusotine, 3-[4-(4-amino-1-piperidyl)-3-(3,5-difluorophenyl)-6-quinolyl]-2-hydroxybenzonitrile]
- TEAE SOC Gastrointestinal disorders, number of occurrences [1]: 5
- TEAE SOC Gastrointestinal disorders, subjects n (%) [1]: 4 (28.6%)
- TEAE SOC General disorders and administration site conditions, subjects n (%) [1]: 0
- TEAE SOC Infections and infestations, subjects n (%) [1]: 0
- TEAE SOC Nervous system disorders, number of occurrences [1]: 1
- TEAE SOC Nervous system disorders, subjects n (%) [1]: 1 (7.1%)
- TEAE SOC Renal and urinary disorders, subjects n (%) [1]: 0
- TEAEs Not Related to study drug (strongest relationship), subjects n (%) [1]: 1 (7.1%)
- TEAEs Not Related to study drug, number of occurrences [1]: 1
- TEAEs Related to study drug (strongest relationship), subjects n (%) [1]: 3 (21.4%)
- TEAEs Related to study drug, number of occurrences [1]: 5
- TEAEs by maximum severity: Mild, number of occurrences [1]: 5
- TEAEs by maximum severity: Mild, subjects n (%) [1]: 3 (21.4%)
- TEAEs by maximum severity: Moderate, number of occurrences [1]: 1
- TEAEs by maximum severity: Moderate, subjects n (%) [1]: 1 (7.1%)
- TEAEs by maximum severity: Severe, subjects n (%) [1]: 0
- Total number of SAEs reported [1]: 0
- Total number of TEAEs reported [1]: 6
- Any SAEs, number of occurrences (overall (N = 36)): 1
- Any TEAE, number of occurrences (overall (N = 36)): 17
- Related TEAE Abdominal discomfort, number of occurrences (overall (N = 36)): 1
- Related TEAE Abdominal discomfort, subjects n (%) (overall (N = 36)): 1 (2.8%)
- Related TEAE Diarrhea, number of occurrences (overall (N = 36)): 5
- Related TEAE Diarrhea, subjects n (%) (overall (N = 36)): 5 (13.9%)
- Related TEAE Epigastric discomfort, number of occurrences (overall (N = 36)): 1
- Related TEAE Epigastric discomfort, subjects n (%) (overall (N = 36)): 1 (2.8%)
- Related TEAE Fatigue, number of occurrences (overall (N = 36)): 1
- Related TEAE Fatigue, subjects n (%) (overall (N = 36)): 1 (2.8%)
- Related TEAE Haematuria, number of occurrences (overall (N = 36)): 1
- Related TEAE Haematuria, subjects n (%) (overall (N = 36)): 1 (2.8%)
- Related TEAE Headache, number of occurrences (overall (N = 36)): 1
- Related TEAE Headache, subjects n (%) (overall (N = 36)): 1 (2.8%)
- Related TEAE Neutropenia, number of occurrences (overall (N = 36)): 1
- Related TEAE Neutropenia, subjects n (%) (overall (N = 36)): 1 (2.8%)
- Related TEAE Pain, number of occurrences (overall (N = 36)): 1
- Related TEAE Pain, subjects n (%) (overall (N = 36)): 1 (2.8%)
- Related TEAE Paraesthesia, number of occurrences (overall (N = 36)): 1
- Related TEAE Paraesthesia, subjects n (%) (overall (N = 36)): 1 (2.8%)
- SAEs Not related to study drug (strongest relationship), subjects n (%) (overall (N = 36)): 1 (2.8%)
- SAEs Not related to study drug, number of occurrences (overall (N = 36)): 1
- SAEs Related to study drug (strongest relationship), subjects (overall (N = 36)): 0
- Subjects reporting any SAEs, subjects n (%) (overall (N = 36)): 1 (2.8%)
- TEAE Abdominal discomfort, number of occurrences (overall (N = 36)): 1
- TEAE Abdominal discomfort, subjects n (%) (overall (N = 36)): 1 (2.8%)
- TEAE COVID-19, number of occurrences (overall (N = 36)): 1
- TEAE COVID-19, subjects n (%) (overall (N = 36)): 1 (2.8%)
- TEAE Death, number of occurrences (overall (N = 36)): 1
- TEAE Death, subjects n (%) (overall (N = 36)): 1 (2.8%)
- TEAE Diarrhea, number of occurrences (overall (N = 36)): 6
- TEAE Diarrhea, subjects n (%) (overall (N = 36)): 6 (16.7%)
- TEAE Epigastric discomfort, number of occurrences (overall (N = 36)): 1
- TEAE Epigastric discomfort, subjects n (%) (overall (N = 36)): 1 (2.8%)
- TEAE Fatigue, number of occurrences (overall (N = 36)): 1
- TEAE Fatigue, subjects n (%) (overall (N = 36)): 1 (2.8%)
- TEAE Haematuria, number of occurrences (overall (N = 36)): 1
- TEAE Haematuria, subjects n (%) (overall (N = 36)): 1 (2.8%)
- TEAE Headache, number of occurrences (overall (N = 36)): 2
- TEAE Headache, subjects n (%) (overall (N = 36)): 2 (5.6%)
- TEAE Neutropenia, number of occurrences (overall (N = 36)): 1
- TEAE Neutropenia, subjects n (%) (overall (N = 36)): 1 (2.8%)
- TEAE Pain, number of occurrences (overall (N = 36)): 1
- TEAE Pain, subjects n (%) (overall (N = 36)): 1 (2.8%)
- TEAE Paraesthesia, number of occurrences (overall (N = 36)): 1
- TEAE Paraesthesia, subjects n (%) (overall (N = 36)): 1 (2.8%)
- TEAE SOC Blood and lymphatic system disorders, number of occurrences (overall (N = 36)): 1
- TEAE SOC Blood and lymphatic system disorders, subjects n (%) (overall (N = 36)): 1 (2.8%)
- TEAE SOC Gastrointestinal disorders, number of occurrences (overall (N = 36)): 8
- TEAE SOC Gastrointestinal disorders, subjects n (%) (overall (N = 36)): 7 (19.4%)
- TEAE SOC General disorders and administration site conditions, number of occurrences (overall (N = 36)): 3
- TEAE SOC General disorders and administration site conditions, subjects n (%) (overall (N = 36)): 2 (5.6%)
- TEAE SOC Infections and infestations, number of occurrences (overall (N = 36)): 1
- TEAE SOC Infections and infestations, subjects n (%) (overall (N = 36)): 1 (2.8%)
- TEAE SOC Nervous system disorders, number of occurrences (overall (N = 36)): 3
- TEAE SOC Nervous system disorders, subjects n (%) (overall (N = 36)): 3 (8.3%)
- TEAE SOC Renal and urinary disorders, number of occurrences (overall (N = 36)): 1
- TEAE SOC Renal and urinary disorders, subjects n (%) (overall (N = 36)): 1 (2.8%)
- TEAEs Not Related to study drug (strongest relationship), subjects n (%) (overall (N = 36)): 1 (2.8%)
- TEAEs Not Related to study drug, number of occurrences (overall (N = 36)): 4
- TEAEs Related to study drug, number of occurrences (overall (N = 36)): 13
- TEAEs by maximum severity: Mild, number of occurrences (overall (N = 36)): 12
- TEAEs by maximum severity: Mild, subjects n (%) (overall (N = 36)): 6 (16.7%)
- TEAEs by maximum severity: Moderate, number of occurrences (overall (N = 36)): 4
- TEAEs by maximum severity: Moderate, subjects n (%) (overall (N = 36)): 3 (8.3%)
- TEAEs by maximum severity: Severe, number of occurrences (overall (N = 36)): 1
- TEAEs by maximum severity: Severe, subjects n (%) (overall (N = 36)): 1 (2.8%)
- Total number of SAEs reported (overall (N = 36)): 1
- Total number of TEAEs reported (overall (N = 36)): 17
- Any TEAE, number of occurrences [2]: 4
- Related TEAE Abdominal discomfort, subjects n (%) [2]: 0
- Related TEAE Diarrhea, number of occurrences [2]: 1
- Related TEAE Diarrhea, subjects n (%) [2]: 1 (16.7%)
- Related TEAE Epigastric discomfort, subjects n (%) [2]: 0
- Related TEAE Fatigue, subjects n (%) [2]: 0
- Related TEAE Haematuria, subjects n (%) [2]: 0
- Related TEAE Headache, subjects n (%) [2]: 0
- Related TEAE Neutropenia, number of occurrences [2]: 1
- Related TEAE Neutropenia, subjects n (%) [2]: 1 (16.7%)
- Related TEAE Pain, subjects n (%) [2]: 0
- Related TEAE Paraesthesia, subjects n (%) [2]: 0
- SAEs Not related to study drug (strongest relationship), subjects n (%) [2]: 0
- SAEs Related to study drug (strongest relationship), subjects [2]: 0
- Subjects reporting any SAEs, subjects n (%) [2]: 0
- Subjects reporting any TEAE, subjects n (%) [2]: 2 (33.3%)
- TEAE Abdominal discomfort, subjects n (%) [2]: 0
- TEAE COVID-19, number of occurrences [2]: 1
- TEAE COVID-19, subjects n (%) [2]: 1 (16.7%)
- TEAE Death, subjects n (%) [2]: 0
- TEAE Diarrhea, number of occurrences [2]: 1
- TEAE Diarrhea, subjects n (%) [2]: 1 (16.7%)
- TEAE Epigastric discomfort, subjects n (%) [2]: 0
- TEAE Fatigue, subjects n (%) [2]: 0
- TEAE Haematuria, subjects n (%) [2]: 0
- TEAE Headache, number of occurrences [2]: 1
- TEAE Headache, subjects n (%) [2]: 1 (16.7%)
- TEAE Neutropenia, number of occurrences [2]: 1
- TEAE Neutropenia, subjects n (%) [2]: 1 (16.7%)
- TEAE Pain, subjects n (%) [2]: 0
- TEAE Paraesthesia, subjects n (%) [2]: 0
- TEAE SOC Blood and lymphatic system disorders, number of occurrences [2]: 1
- TEAE SOC Blood and lymphatic system disorders, subjects n (%) [2]: 1 (16.7%)
- TEAE SOC Gastrointestinal disorders, number of occurrences [2]: 1
- TEAE SOC Gastrointestinal disorders, subjects n (%) [2]: 1 (16.7%)
- TEAE SOC General disorders and administration site conditions, subjects n (%) [2]: 0
- TEAE SOC Infections and infestations, number of occurrences [2]: 1
- TEAE SOC Infections and infestations, subjects n (%) [2]: 1 (16.7%)
- TEAE SOC Nervous system disorders, number of occurrences [2]: 1
- TEAE SOC Nervous system disorders, subjects n (%) [2]: 1 (16.7%)
- TEAE SOC Renal and urinary disorders, subjects n (%) [2]: 0
- TEAEs Not Related to study drug (strongest relationship), subjects n (%) [2]: 0
- TEAEs Related to study drug (strongest relationship), subjects n (%) [2]: 2 (33.3%)
- TEAEs Related to study drug, number of occurrences [2]: 2
- TEAEs by maximum severity: Mild, number of occurrences [2]: 2
- TEAEs by maximum severity: Mild, subjects n (%) [2]: 1 (16.7%)
- TEAEs by maximum severity: Moderate, number of occurrences [2]: 2
- TEAEs by maximum severity: Moderate, subjects n (%) [2]: 1 (16.7%)
- TEAEs by maximum severity: Severe, subjects n (%) [2]: 0
- Total number of SAEs reported [2]: 0
- Total number of TEAEs reported [2]: 4
